Source: paper PMC6151550, “Inhibitory Effect of Selaginellins from Selaginella tamariscina (Beauv.) Spring against Cytochrome P450 and Uridine 5′-Diphosphoglucuronosyltransferase Isoforms on Human Liver Microsomes” (Molecules : A Journal of Synthetic Chemistry and Natural …, 2017)

Target: T1, CYP2J2 (Homo sapiens, UniProt P51589)
T1 construct: from tissue; host or cells: pooled human liver microsomes
T1 sequence (P51589 1-502): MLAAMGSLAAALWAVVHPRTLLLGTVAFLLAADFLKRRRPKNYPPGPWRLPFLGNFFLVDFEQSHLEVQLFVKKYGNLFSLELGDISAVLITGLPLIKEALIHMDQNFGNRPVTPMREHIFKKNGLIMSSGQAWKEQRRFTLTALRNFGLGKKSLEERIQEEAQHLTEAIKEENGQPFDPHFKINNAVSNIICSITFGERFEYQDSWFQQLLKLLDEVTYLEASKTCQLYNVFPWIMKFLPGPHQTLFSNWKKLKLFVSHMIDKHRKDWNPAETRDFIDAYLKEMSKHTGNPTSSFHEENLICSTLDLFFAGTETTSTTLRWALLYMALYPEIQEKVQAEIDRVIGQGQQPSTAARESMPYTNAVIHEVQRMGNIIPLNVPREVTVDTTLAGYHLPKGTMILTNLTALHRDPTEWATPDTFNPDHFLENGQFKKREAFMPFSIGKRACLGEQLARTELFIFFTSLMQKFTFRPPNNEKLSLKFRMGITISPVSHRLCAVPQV
Experiment: CYP2J2 inhibition (astemizole O-demethylation) in pooled human liver microsomes, LC-MS/MS
Assay type: in vitro ADME
Conditions: IC50 P450 isoform 2J2, pooled HLMs 0.25 mg/mL, astemizole 1.0 μM
Protocol: The inhibitory effects of two selaginellins on the metabolism of ten P450 probe substrates were evaluated using previously reported method with minor modification. Phenacetin O-deethylase, coumarin 7-hydroxylase, bupropion 4-hydroxylase, amodiaquine N-deethylase, tolbutamide 4-hydroxylase, omeprazole 5-hydroxylase, dextromethorphan O-demethylase, chlorzoxazone 6-hydroxylase and midazolam 1′-hydroxylase activities were determined as probe activities for CYP1A2, CYP2A6, CYP2B6, CYP2C8, CYP2C9, CYP2C19, CYP2D6, CYP2E1 and […], respectively, using substrate cocktail incubation and tandem mass spectrometry (Table 2). Selaginellins were dissolved in methanol. The final concentrations of organic solvent (methanol) for the cocktail incubation conditions in all experiments were 1.0% (v/v). In brief, the incubation mixtures containing pooled HLMs (0.25 mg/mL, H2630, Xenotech), P450 probe substrate cocktail, and inhibitor (0, 0.5, 2, 5, 20 and 50 μM) were preincubated at 37 °C for 5 min. […] After mixing and centrifugation, aliquots were analyzed by liquid chromatography-tandem mass spectrometry (LC-MS/MS) as previous described. The CYP2J2 inhibitory effects of two selaginellins were also evaluated in pooled HLMs using previously reported method. […]

COc1ccc(C(=C2C=CC(=O)C=C2)c2c(-c3ccc(O)cc3)ccc(CO)c2C#Cc2ccc(O)cc2)cc1 [Selaginellin M]
IC50: 2700 nM

O=C1C=CC(=C(c2ccc(O)cc2)c2c(-c3ccc(O)cc3)ccc(CO)c2C#Cc2ccc(O)cc2)C=C1 [Selaginellin]
IC50: 800 nM
